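Compound exposure: 48 hours, 5 concentrations, 96-well plates. At the GI50, growth is halved.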 Active and inactive are the calls of the source. No stated cut-off is given here; in the data, active = GI50 up to about 1.1 µM and inactive = higher.
Assays:
Experiment in all cases: NCI-60 cell line screen, 48 h
SR = system: SR
SW-620 = system: SW-620
UO-31 = system: UO-31
U-251 = system: U-251
K562 = system: K562
HCT-15 = system: HCT-15
BT-549 = system: BT-549
TK-10 = system: TK-10
NCI/ADR-RES = system: NCI/ADR-RES
NCI-H23 = system: NCI-H23
NCI-H460 = system: NCI-H460
KM12 = system: KM12
DU-145 = system: DU-145
ACHN = system: ACHN
NCI-H226 = system: NCI-H226
SF-295 = system: SF-295
NCI-H522 = system: NCI-H522
SK-MEL-5 = system: SK-MEL-5
IGROV-1 = system: IGROV-1

Row | SMILES | GI50 (SR) | GI50 (SW-620) | GI50 (UO-31) | GI50 (U-251) | GI50 (K562) | GI50 (HCT-15) [µM] | GI50 (BT-549) | GI50 (TK-10) | GI50 (NCI/ADR-RES) | GI50 (NCI-H23) | GI50 (NCI-H460) | GI50 (KM12) | GI50 (DU-145) | GI50 (ACHN) | GI50 (NCI-H226) | GI50 (SF-295) | GI50 (NCI-H522) | GI50 (SK-MEL-5) | GI50 (IGROV-1)
1 | CCOC(=O)[C@H]1C[C@@H](C(=O)c2ccccc2)N2N=C(c3ccc(Br)cc3)C=C[C@H]12 | 9.48 µM (inactive) | > 100 µM (inactive) | > 100 µM (inactive) | > 100 µM (inactive) | > 100 µM (inactive) | > 100 | > 100 µM (inactive) | > 100 µM (inactive) | > 100 µM (inactive) | > 100 µM (inactive) | > 100 µM (inactive) | > 100 µM (inactive) | > 100 µM (inactive) | > 100 µM (inactive) | > 100 µM (inactive) | > 100 µM (inactive) |  |  | 
2 | C=C1[C@H](OC(C)=O)[C@H]2[C@@H](OC(C)=O)[C@@H](C)C[C@]2(C)C(=O)[C@H](C)/C=C/C(C)(C)C(=O)[C@H](OCC(C)C)[C@H]1OC(C)=O | > 25 µM (inactive) | > 25 µM (inactive) | > 25 µM (inactive) | > 25 µM (inactive) |  | > 25 | > 25 µM (inactive) | > 25 µM (inactive) | > 25 µM (inactive) | > 25 µM (inactive) | 12.6 µM (inactive) | > 25 µM (inactive) | > 25 µM (inactive) | > 25 µM (inactive) | > 25 µM (inactive) | 22.9 µM (inactive) | > 25 µM (inactive) | > 25 µM (inactive) | > 25 µM (inactive)
3 | CCCCCCCCCCCCCCCC[N+](C)(C)CCl | 1.99 µM (inactive) | 2.69 µM (inactive) | 11.1 µM (inactive) | 1.68 µM (inactive) | 1.75 µM (inactive) | 3.59 | 2.29 µM (inactive) | 2.25 µM (inactive) | 20.6 µM (inactive) | 4.19 µM (inactive) | 1.77 µM (inactive) | 1.46 µM (inactive) | 3.78 µM (inactive) | 2.66 µM (inactive) | 2.12 µM (inactive) | 2.26 µM (inactive) |  | 1.68 µM (inactive) | 0.585 µM (active)
4 | CC1(C)C2CCC1(CC(=O)O)C(Cl)C2 (centres undefined) |  | > 100 µM (inactive) | > 100 µM (inactive) | > 100 µM (inactive) | > 100 µM (inactive) | > 100 | > 100 µM (inactive) | > 100 µM (inactive) | > 100 µM (inactive) | > 100 µM (inactive) | > 100 µM (inactive) | > 100 µM (inactive) | > 100 µM (inactive) | > 100 µM (inactive) | > 100 µM (inactive) | > 100 µM (inactive) | > 100 µM (inactive) | > 100 µM (inactive) | > 100 µM (inactive)
5 | CCOC(=O)C(NC(=O)c1ccccc1)(c1ccc(S(=O)(=O)Nc2onc(C)c2C)cc1)C(F)(F)F (centres undefined) | > 100 µM (inactive) | > 100 µM (inactive) | > 100 µM (inactive) | > 100 µM (inactive) | > 100 µM (inactive) | > 100 | > 100 µM (inactive) | > 100 µM (inactive) | > 100 µM (inactive) | > 100 µM (inactive) | > 100 µM (inactive) | > 100 µM (inactive) | > 100 µM (inactive) | > 100 µM (inactive) | > 100 µM (inactive) | > 100 µM (inactive) |  | > 100 µM (inactive) | > 100 µM (inactive)
6 | OCCOCn1nncc1Cn1ncc2c(SCc3ccccc3)ncnc21 |  | 15.6 µM (inactive) | 66.7 µM (inactive) | > 100 µM (inactive) | 37.7 µM (inactive) | 57.3 | > 100 µM (inactive) | > 100 µM (inactive) | > 100 µM (inactive) | > 100 µM (inactive) | > 100 µM (inactive) | > 100 µM (inactive) | > 100 µM (inactive) | > 100 µM (inactive) | > 100 µM (inactive) | > 100 µM (inactive) | 42.8 µM (inactive) | > 100 µM (inactive) | 51.1 µM (inactive)
7 | NC(=O)CCC(NC(=O)c1c2ccccc2nc2ccccc12)C(=O)O (centres undefined) |  | > 100 µM (inactive) | > 100 µM (inactive) | > 100 µM (inactive) | > 100 µM (inactive) | > 100 | > 100 µM (inactive) | > 100 µM (inactive) | > 100 µM (inactive) | > 100 µM (inactive) | > 100 µM (inactive) | > 100 µM (inactive) | > 100 µM (inactive) | > 100 µM (inactive) | > 100 µM (inactive) | > 100 µM (inactive) | > 100 µM (inactive) | > 100 µM (inactive) | > 100 µM (inactive)

— ChEMBL document CHEMBL1201862, “PubChem BioAssay data set” (2004)
